# Source: patent US6426229B1, “Chelating agent and detergent comprising the same” (Mitsubishi Rayon Co., Ltd., priority 1995, dated 2002)
# Experiment: Storage of aqueous solution or slurry for 60 days: HPLC analysis of components and appearance
# Assay type: physicochemical
# Settings: keeping temperature 50° C.
# Method: (§1) This aqueous solution was kept at 50° C. for 60 days, and, then, the components were analyzed by HPLC and, simultaneously, the appearance of the solution was observed.
# as §1
# This aqueous solution was kept at 50° C. for 60 days. Then, the components were analyzed by HPLC and, simultaneously, the appearance of the solution was observed.
Compound,Appearance after kept for 60 days,Content of the compound of the formula [I] in aqueous solution after kept for 60 days [wt. %]
"O=C([O-])CN[C@@H](CC(=O)[O-])C(=O)[O-].[Na+].[Na+].[Na+] [Example 85, trisodium salt of (S)-aspartic acid-N-monoacetic acid]",Light yellow transparent aqueous solution,35.4
"O=C([O-])C[C@@H](C(=O)[O-])N(CC(=O)[O-])CC(=O)[O-].[Na+].[Na+].[Na+].[Na+] [Example 86, tetrasodium salt of (S)-aspartic acid-N,N-diacetic acid]",Light yellow transparent aqueous solution,36.4
"O=C([O-])CCN[C@@H](CC(=O)[O-])C(=O)[O-].[Na+].[Na+].[Na+] [Example 87, trisodium salt of (S)-aspartic acid-N-monopropionic acid]",Light yellow transparent aqueous solution,37.8
"C[C@@H](C(=O)[O-])N(CC(=O)[O-])CC(=O)[O-].[Na+].[Na+].[Na+] [Example 88, trisodium salt of (S)-α-alanine-N,N-diacetic acid]",Light yellow transparent aqueous solution,36.5
"O=C([O-])CN(CCS(=O)(=O)[O-])CC(=O)[O-].[Na+].[Na+].[Na+] [Example 100, trisodium salt of taurine-N,N-diacetic acid]",Light yellow transparent aqueous solution,34.7
"CN(CC(=O)[O-])CC(=O)[O-].[Na+].[Na+] [Example 101, disodium N-methyliminodiacetate]",Light yellow transparent aqueous solution,36.6
"O=C([O-])CN(CC(=O)[O-])c1ccccc1C(=O)[O-].[Na+].[Na+].[Na+] [Example 102, trisodium salt of anthranilic acid-N,N-diacetic acid]",Light yellow transparent aqueous solution,37.8
"O=C([O-])CC(NCCNC(CC(=O)[O-])C(=O)[O-])C(=O)[O-].[Na+].[Na+].[Na+].[Na+] (stereo not shown) [Example 112, tetrasodium ethylenediamine-N,N′-disuccinate]",Light yellow transparent aqueous solution,36.4
"O=C([O-])C[C@H](NCCN[C@@H](CC(=O)[O-])C(=O)[O-])C(=O)[O-].[Na+].[Na+].[Na+].[Na+] [Example 113, tetrasodium (S,S)-ethylenediamine-N,N′-disuccinate]",Light yellow transparent aqueous solution,35.6
"O=C([O-])CC(NCCCNC(CC(=O)[O-])C(=O)[O-])C(=O)[O-].[Na+].[Na+].[Na+].[Na+] (stereo not shown) [Example 114, tetrasodium 1,3-propanediamine-N,N′-disuccinate]",Light yellow transparent aqueous solution,36.4
"O=C([O-])CC(NCCNC(CC(=O)[O-])C(=O)[O-])C(=O)[O-].[Cu+2].[Na+].[Na+] (stereo not shown) [Example 124, copper disodium ethylenediamine-N,N′-disuccinate]",Dark blue transparent aqueous solution,36.3
"O=C([O-])C[C@H](NCCN[C@@H](CC(=O)[O-])C(=O)[O-])C(=O)[O-].[Fe+3].[NH4+] [Example 125, iron ammonium (S,S)-ethylenediamine-N,N′-disuccinate]",Reddish brown aqueous solution,36.5
"O=C([O-])CC(NCCCNC(CC(=O)[O-])C(=O)[O-])C(=O)[O-].[Cu+2].[Na+].[Na+] (stereo not shown) [Example 126, copper disodium 1,3-propanediamine-N,N′-disuccinate]",Dark blue transparent aqueous solution,36.4
"O=C([O-])CN[C@@H](CC(=O)[O-])C(=O)[O-].[Na+].[Na+].[Na+] [compound 29, trisodium salt of (S)-aspartic acid-N-monoacetic acid]",Brown aqueous solution,31.1
"O=C([O-])C[C@@H](C(=O)[O-])N(CC(=O)[O-])CC(=O)[O-].[Na+].[Na+].[Na+].[Na+] [compound 30, tetrasodium salt of (S)-aspartic acid-N,N-diacetic acid]",Brown aqueous solution,31.8
"O=C([O-])CCN[C@@H](CC(=O)[O-])C(=O)[O-].[Na+].[Na+].[Na+] [compound 31, trisodium salt of (S)-aspartic acid-N-monopropionic acid]",Brown aqueous solution,33.2
"C[C@@H](C(=O)[O-])N(CC(=O)[O-])CC(=O)[O-].[Na+].[Na+].[Na+] [compound 32, trisodium salt of (S)-α-alanine-N,N-diacetic acid]",Brown aqueous solution,31.8
"O=C([O-])CN[C@@H](CC(=O)[O-])C(=O)[O-].[Na+].[Na+].[Na+] [compound 33, trisodium salt of (S)-aspartic acid-N-monoacetic acid]",Brown slurry,30.5
"O=C([O-])CN(CCS(=O)(=O)[O-])CC(=O)[O-].[Na+].[Na+].[Na+] [compound 37, trisodium salt of taurine-N,N-diacetic acid]",Brown aqueous solution,30.4
"CN(CC(=O)[O-])CC(=O)[O-].[Na+].[Na+] [compound 38, disodium N-methyliminodiacetate]",Brown aqueous solution,29.9
"O=C([O-])CN(CC(=O)[O-])c1ccccc1C(=O)[O-].[Na+].[Na+].[Na+] [compound 39, trisodium salt of anthranilic acid-N,N-diacetic acid]",Brown aqueous solution,31.8
"O=C([O-])CN(CCS(=O)(=O)[O-])CC(=O)[O-].[Na+].[Na+].[Na+] [compound 40, trisodium salt of taurine-N,N-diacetic acid]",Brown slurry,29.5
"O=C([O-])CC(NCCNC(CC(=O)[O-])C(=O)[O-])C(=O)[O-].[Na+].[Na+].[Na+].[Na+] (stereo not shown) [compound 43, tetrasodium ethylenediamine-N,N′-disuccinate]",Light yellow transparent aqueous solution,35.7
"O=C([O-])C[C@H](NCCN[C@@H](CC(=O)[O-])C(=O)[O-])C(=O)[O-].[Na+].[Na+].[Na+].[Na+] [compound 44, tetrasodium (S,S)-ethylenediamine-N,N′-disuccinate]",Light yellow transparent aqueous solution,34.4
"O=C([O-])CC(NCCCNC(CC(=O)[O-])C(=O)[O-])C(=O)[O-].[Na+].[Na+].[Na+].[Na+] (stereo not shown) [compound 45, tetrasodium 1,3-propanediamine-N,N′-disuccinate]",Light yellow transparent aqueous solution,33.3
"O=C([O-])CC(NCCNC(CC(=O)[O-])C(=O)[O-])C(=O)[O-].[Cu+2].[Na+].[Na+] (stereo not shown) [compound 48, copper disodium ethylenediamine-N,N′-disuccinate]",Dark blue transparent aqueous solution,31.4
"O=C([O-])C[C@H](NCCN[C@@H](CC(=O)[O-])C(=O)[O-])C(=O)[O-].[Fe+3].[NH4+] [compound 49, iron ammonium (S,S)-ethylenediamine-N,N′-disuccinate]",Blackish brown aqueous solution,29.9
"O=C([O-])CC(NCCCNC(CC(=O)[O-])C(=O)[O-])C(=O)[O-].[Cu+2].[Na+].[Na+] (stereo not shown) [compound 50, copper disodium 1,3-propanediamine-N,N′-disuccinate]",Dark blue transparent aqueous solution,32.2

# Experiment: as above
# Assay type: physicochemical
# Settings: keeping temperature 75° C.
Compound,Appearance after kept for 60 days,Content of the compound of the formula [I] in aqueous solution after kept for 60 days [wt. %]
"O=C([O-])CC(NCCCNC(CC(=O)[O-])C(=O)[O-])C(=O)[O-].[Na+].[Na+].[Ni+2] [compound 51, nickel disodium (S,S)-1,3-propanediamine-N,N′-disuccinate, reference compound]",Blue transparent aqueous solution,38.4
"O=C([O-])C[C@H](NCC(O)CN[C@@H](CC(=O)[O-])C(=O)[O-])C(=O)[O-].[Cu+2].[Na+].[Na+] [compound 52, copper disodium (S,S)-2-hydroxy-1,3-propanediamine-N,N′-disuccinate, reference compound]",Dark blue transparent aqueous solution,38.7

# Experiment: not given
# Settings: reported value; cited from earlier work
row,Compound,chelate stability constant for calcium
1,"O=C(O)CN(CC(=O)O)CC(=O)O [NTA, nitrilotriacetic acid, reference compound]",6.4
